One test concerns ACE-2 receptor. Description: ACE-2 protein abundance by Jess capillary western in human alveoli in culture. Format: cell-based. To be noted: effect dependent on addition of IL-1b. An excerpt:
The Simple Protein platform Jess allows running a protein mixture in a capillary system that also serves as a probing matrix for the antibodies. This platform obviates the need to transfer the size-separated proteins onto a membrane with the consequent loss of sample. The sample amount that can be run in Jess is several times smaller than that required for Western blots. Therefore, high throughput is facilitated in cell cultures. The antibodies to this protein have been validated in our laboratory.
c.1.b. Protein abundance using Jess technology. The Simple Protein platform Jess allows running a protein mixture in a capillary electrophoretic system as a probing matrix for the antibodies (we refer to western blot as “Jess WB” here). This platform obviates the need to transfer the size-separated proteins onto a membrane with a potential loss of sample. The sample size run in Jess is several times smaller than that for classical WB. (400 ng protein/capillary column vs. 10 or more μg for classical WB). The proteins we assess will include ACE2, Furin, ADAM17, DPP4, TMPRSS2, protein surfactant D, and Cathepsin L. In addition, senescence and SASP proteins will also be analyzed. […]
ACE2 Protein abundance using Jess technology. […] Soluble protein concentration was determined by BCA assay (Thermo Fisher Scientific, Cat. 23225) and 0.4 μg used/reaction. […]

A further test concerns ACE2. Kind of test: Rat cornea alkali burn: ACE2 abundance by Jess capillary-based Western Blot. Format: in vivo. The note with it: rat cornea after alkali burn; eye drops 20 μl/eye, 3 times/day for 14 days; day 14. The text has this:
Sprague-Dawley rats (8-week-old male) were obtained from Charles River Laboratories (Wilmington, MA, USA) and kept at the Animal Care of the Neuroscience Center of Excellence, Louisiana State University Health (LSUH; New Orleans, LA, USA). All animals were handled in compliance with the guidelines of the ARVO Statement for the Use of Animals in Ophthalmic and Vision Research, and the experimental protocol was approved by the Institutional Animal Care and Use Committee (IACUC) at LSUH.
The rats were anesthetized by intraperitoneal injection of Ketamine (50-100 mg/kg) plus xylazine (5-10 mg/kg). A 4 mm diameter filter paper soaked in 1 N NaOH was placed on the central cornea of the right eye for 45 seconds, and then the eye was thoroughly washed with […] of saline. After injury, the rats were randomly divided into five treatment groups: vehicle; lipoxin A4 (LXA4) from Cayman Chemical (Ann Arbor, MI, USA); R,R Resolvin D6 isomer (RvD6i), R,R neuroprotection D (NPD1), and elovanoid (ELV)-N32. All lipid solutions were prepared at the final concentration of […] using PBS with the minimal contamination of ethanol by evaporating the ethanol and immediately dissolve the lipids in PBS, then vortex well for 2 min. Topical administration (20 μl) was done 3×/day for 14 days. The experiments were double-blinded with the lipid mediators coded during the whole experiments. At the end of the study, when all data was collected, the code was opened.
Briefly, samples were lysed with RIPA buffer containing a protease inhibitor cocktail (Sigma, Cat. P8340). Cell debris was removed after 10 min centrifugation at 16,000×g. Protein concentration was determined by BCA assay (Thermo Fisher Scientific, Cat. 23225) and 1 μg used/reaction. Fluorescent Master Mix was mixed with 40 mM DTT, and the mixture was added to each sample to provide a denaturing and reducing environment. Samples were heated at 95° C./5 min, and 3 μL of each sample were loaded. The 12-230 kDa cartridge (Protein Simple—#SM-W004) was used. Primary antibodies were diluted in antibody diluent 2 buffer (Protein Simple, #042-203) while the working solution of secondary antibodies was provided by the company (Protein Simple, #042-206). Then, the filled plate was spin-down for 10 min at 1,000×g to remove bubbles and plate, and capillaries were loaded into the Jess machine. For data analysis, the area of spectra that matched the molecular weight of the target protein was used. To reduce the coefficient variant, we analyzed the GAPDH for each capillary. The ratio of the targeted protein to GAPDH was used for statistical comparisons. For visualization, the artificial lanes generated from spectra volume was used.
Background: Immunoblotting shows a protein as a band on a membrane.

The next test concerns Alexa 594-RBD. Format: in vivo. The note with it: rat cornea after alkali burn; 14 days treatment; Alexa 594-RBD 1 μg/eye, 3 times at day 15, examined a day later.
For test [1], the system named is human corneal epithelial cells (HCEC). Description: HCEC challenged with IFNγ: SASP secretome (β-Gal staining). The note with it: HCEC 24 h after IFN-γ challenge. It counts as cell-based.

Molecules are shown by their SMILES. “Also recorded” adds a separate entry of the source.

In the case of `CC/C=C\CC(O)\C=C/C=C/C=C/C(O)C/C=C\C/C=C\CCCCCCCCCCCCC(=O)O` [ELV-N32, (14Z,17Z,20R,21E,23E,25Z,27S,29Z)-20,27-dihydroxydo-triaconta-14,17,21,23,25,29-hexaenoic acid], the “expression of the ACE-2 receptor (protein abundance, Jess)” value in the test on ACE-2 receptor is on record as “downregulate”. For the same compound, in the test on ACE2, the “ACE2 abundance (protein, normalized to GAPDH)” value is reported as “decrease”. Besides, the “binding of Alexa 594-RBD to injured cornea” value in the test with Alexa 594-RBD is “decrease; also recorded: counteracted”. Further, the “senescence programming genes and SASP secretome activation (β-Gal)” value in test [1] is “blocked; also recorded: suppressed”.

Values taken from US20240041813A1, “VERY-LONG-CHAIN POLYUNSATURATED FATTY ACIDS, ELOVANOID HYDROXYLATED DERIVATIVES, AND METHODS OF USE” (priority 2020, published 2024).
